Measured values from patent publication US20250136607A1 (REGOR PHARMACEUTICALS, INC., priority 2021, published 2025).
Several values for one entry are separate records, joined by “and”; a condition that tells them apart may be missing. Identical values can stand only once.

Target: Protein arginine deiminase 4 (PAD4) (Homo sapiens, UniProt Q9UM07)
Experiment: PAD4 ammonia release assay
Type: biochemical
Details: PAD4 activity comparison; read-out: PAD4 Ammonia assay IC50
In short: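 Ammonia release from BAEE substrate (2× mix 600 μM) was measured after 60 min at RT, following 15 min enzyme–compound preincubation (PAD4 2× 20 nM; pH 8.0 HEPES, 2 mM CaCl2, TCEP; 1.25% DMSO). Detection used OPA/DTT/EDTA for 120 min. % inhibition was taken versus reference-compound and DMSO controls; IC50 by four-parameter logistic fit.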

Chain of Protein arginine deiminase 4 (PAD4) (Q9UM07 whole entry): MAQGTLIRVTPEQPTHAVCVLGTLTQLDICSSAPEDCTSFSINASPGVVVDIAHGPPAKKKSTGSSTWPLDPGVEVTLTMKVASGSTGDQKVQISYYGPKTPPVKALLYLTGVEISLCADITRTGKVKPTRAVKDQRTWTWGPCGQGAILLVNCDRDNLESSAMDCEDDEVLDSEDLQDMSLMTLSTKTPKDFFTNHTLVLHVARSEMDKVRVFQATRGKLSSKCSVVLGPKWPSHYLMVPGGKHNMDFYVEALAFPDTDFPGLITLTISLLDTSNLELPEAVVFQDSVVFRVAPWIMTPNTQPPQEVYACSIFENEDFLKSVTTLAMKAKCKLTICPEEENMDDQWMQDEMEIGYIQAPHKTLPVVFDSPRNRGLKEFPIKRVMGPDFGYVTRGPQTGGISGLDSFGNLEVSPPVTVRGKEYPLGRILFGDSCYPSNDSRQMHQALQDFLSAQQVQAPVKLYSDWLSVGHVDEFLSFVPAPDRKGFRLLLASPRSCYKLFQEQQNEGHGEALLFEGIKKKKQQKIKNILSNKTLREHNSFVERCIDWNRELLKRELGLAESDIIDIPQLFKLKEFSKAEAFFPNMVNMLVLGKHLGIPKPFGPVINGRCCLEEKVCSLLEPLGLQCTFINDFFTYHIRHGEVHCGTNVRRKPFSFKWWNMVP

**Q.** For `Cn1c(-c2cc3cccc4c3n2CCO4)nc2cc(C(=O)N3CCC[C@@H](N)C3)ccc21` [A, reference compound], which IC50 is on record?
**A.** The IC50 was ~15.2 µM and 15.2 µM.

Same assay, conditions: PAD4 ammonia release assay, BAEE substrate, 60 min at RT; read-out: Average IC50 Abs

**Q.** With `Cn1c(-c2cc3ccc4c(c3n2CC2CC2)CCCN4)nc2cc(C(=O)N3C[C@H]4CC[C@@H]3[C@@H]4N)cc(F)c21` [Example 163, ((1R,4R,7R)-7-amino-2-azabicyclo[2.2.1]heptan-2-yl)(2-(1-(cyclopropylmethyl)-6,7,8,9-tetrahydro-1H-pyrrolo[2,3-f]quinolin-2-yl)-7-fluoro-1-methyl-1H-benzo[d]imidazol-5-yl)methanone] as the compound, how does the IC50 read?
**A.** The IC50 was 0.1 to 0.5 µM.

**Q.** With `CCC1CN(CCC(C)(C)O)c2cccc3cc(-c4nc5cc(C(=O)N6C[C@H](N)C[C@@H](F)C6)cc(OC)c5n4C)n1c23` (stereo partly drawn) [Example 83, ((3R,5R)-3-amino-5-fluoropiperidin-1-yl)(2-(3-ethyl-1-(3-hydroxy-3-methylbutyl)-2,3-dihydro-1H-pyrrolo[1,2,3-de]quinoxalin-5-yl)-7-methoxy-1-methyl-1H-benzo[d]imidazol-5-yl)methanon] as the compound, how does the IC50 read?
**A.** Its IC50 is 0.1 to 0.5 µM.

**Q.** For `Cn1c(-c2cc3cc(C#N)cc4c3n2[C@H](C2CC2)CN4)nc2cc(C(=O)N3C[C@H]4CC[C@@H]3[C@@H]4N)cc(F)c21` [Example 117, (R)-5-(5-((1R,4R,7R)-7-amino-2-azabicyclo[2.2.1]heptane-2-carbonyl)-7-fluoro-1-methyl-1H-benzo[d]imidazol-2-yl)-3-cyclopropyl-2,3-dihydro-1H-pyrrolo[1,2,3-de]quinoxaline-8-carbonitrile], which IC50 is on record?
**A.** The IC50 was greater than 5 µM.

**Q.** How did the IC50 turn out when `COc1cc(C(=O)N2C[C@H](N)C[C@@H](C(F)(F)F)C2)cc2nc(-c3cc4cccc5c4n3CCN5CCCO)n(C)c12` [Example 17, ((3R,5R)-3-amino-5-(trifluoromethyl)piperidin-1-yl)(2-(1-(3-hydroxypropyl)-2,3-dihydro-1H-pyrrolo[1,2,3-de]quinoxalin-5-yl)-7-methoxy-1-methyl-1H-benzo[d]imidazol-5-yl)methanone] was run?
**A.** Its IC50 is greater than 5 µM.

**Q.** `Cc1nnc2c3c(ccn12)cc(-c1nc2cc(C(=O)N4C[C@H]5CC[C@@H]4[C@@H]5N)cc(F)c2n1C)n3CC1CC1` [Example 159, [(1R,4R,7R)-7-amino-2-azabicyclo[2.2.1]heptan-2-yl]-[2-[12-(cyclopropylmethyl)-5-methyl-3,4,6,12-tetrazatricyclo[7.3.0.02,6]dodeca-1(9), 2,4,7,10-pentaen-11-yl]-7-fluoro-1-methyl-benzimidazol-5-yl]methanone] was tested. Which IC50 did it give?
**A.** The IC50 was 0.5 to 5 µM.

**Q.** Which IC50 does the source give for `COc1cc(C(=O)N2C[C@H](N)C[C@@H](F)C2)cc2nc(-c3cc4cccc5c4n3CCN5CCOCCO)n(C)c12` [Example 22, ((3R,5R)-3-amino-5-fluoropiperidin-1-yl)(2-(1-(2-(2-hydroxyethoxy)ethyl)-2,3-dihydro-1H-pyrrolo[1,2,3-de]quinoxalin-5-yl)-7-methoxy-1-methyl-1H-benzo[d]imidazol-5-yl)methanone] here?
**A.** The IC50 was 0.1 to 0.5 µM.

**Q.** How did the IC50 turn out when `CC(C)N1CCc2c(ccc3cc(-c4nc5cc(C(=O)N6C[C@H]7CC[C@@H]6[C@@H]7N)cc(F)c5n4C)n(CC4CC4)c23)C1` [Example 154, ((1R,4R,7R)-7-amino-2-azabicyclo[2.2.1]heptan-2-yl)(2-(1-(cyclopropylmethyl)-7-isopropyl-6,7,8,9-tetrahydro-1H-pyrrolo[2,3-f]isoquinolin-2-yl)-7-fluoro-1-methyl-1H-benzo[d]imidazol-5-yl)methanone] was run?
**A.** Its IC50 is 0.5 to 5 µM.

**Q.** How did the IC50 turn out when `Cn1c(-c2cc3cccc4c3n2[C@H](C2CC2)CN4CCCO)nc2cc(C(=O)N3C[C@H]4CC[C@@H]3[C@@H]4N)cc(F)c21` (single isomer, unassigned) [Example 113] was run?
**A.** Its IC50 is 0.5 to 5 µM.

**Q.** Which IC50 does the source give for `COc1cc(C(=O)N2CC(F)(F)C3(CNC3)C2)cc2nc(-c3cc4cccc5c4n3CCN5CCCO)n(CC3CC3)c12` [Example 57, (1-(cyclopropylmethyl)-2-(1-(3-hydroxypropyl)-2,3-dihydro-1H-pyrrolo[1,2,3-de]quinoxalin-5-yl)-7-methoxy-1H-benzo[d]imidazol-5-yl)(8,8-difluoro-2,6-diazaspiro[3.4]octan-6-yl)methanone] here?
**A.** The IC50 was greater than 5 µM.

**Q.** For `COc1cc(C(=O)N2C[C@H](N)C3(CC3)C2)cc2nc(-c3cc4cccc5c4n3CCN5CCCO)n(CC3CC3)c12` [Example 60, (R)-(7-amino-5-azaspiro[2.4]heptan-5-yl)(1-(cyclopropylmethyl)-2-(1-(3-hydroxypropyl)-2,3-dihydro-1H-pyrrolo[1,2,3-de]quinoxalin-5-yl)-7-methoxy-1H-benzo[d]imidazol-5-yl)methanone], which IC50 is on record?
**A.** The IC50 was greater than 5 µM.

**Q.** For `Cn1c(-c2cc3ccn4c(=O)[nH]nc4c3n2CC2CC2)nc2cc(C(=O)N3C[C@H]4CC[C@@H]3[C@@H]4N)cc(F)c21` [Example 160, 8-(5-((1R,4R,7R)-7-amino-2-azabicyclo[2.2.1]heptane-2-carbonyl)-7-fluoro-1-methyl-1H-benzo[d]imidazol-2-yl)-9-(cyclopropylmethyl)-2,9-dihydro-3H-pyrrolo[2,3-c][1,2,4]triazolo[4,3-a]pyridin-3-one], which IC50 is on record?
**A.** Its IC50 is 0.5 to 5 µM.

**Q.** With `COc1cc(C(=O)N2C[C@H](N)C[C@@H](F)C2)cc2nc(-c3cc4cccc5c4n3CCN5CCCO)n(OC)c12` [Example 63, ((3R,5R)-3-amino-5-fluoropiperidin-1-yl)(2-(1-(3-hydroxypropyl)-2,3-dihydro-1H-pyrrolo[1,2,3-de]quinoxalin-5-yl)-1,7-dimethoxy-1H-benzo[d]imidazol-5-yl)methanone] as the compound, how does the IC50 read?
**A.** The IC50 was greater than 5 µM.

**Q.** With `COc1cc(C(=O)N2C[C@H](N)C[C@@H](F)C2)cc2nc(-c3cc4cccc5c4n3CCN5Cc3cnn(C)c3)n(C)c12` [Example 26, ((3R,5R)-3-amino-5-fluoropiperidin-1-yl)(7-methoxy-1-methyl-2-(1-((1-methyl-1H-pyrazol-4-yl)methyl)-2,3-dihydro-1H-pyrrolo[1,2,3-de]quinoxalin-5-yl)-1H-benzo[d]imidazol-5-yl)methanone] as the compound, how does the IC50 read?
**A.** The IC50 was 0.5 to 5 µM.

**Q.** With `Cn1c(-c2cc3ccc4cc[nH]c4c3n2CC2CCC2)nc2cc(C(=O)N3C[C@H]4CC[C@@H]3[C@@H]4N)cc(F)c21` [Example 165, ((1R,4R,7R)-7-amino-2-azabicyclo[2.2.1]heptan-2-yl)(2-(1-(cyclobutylmethyl)-1,8-dihydropyrrolo[3,2-g]indol-2-yl)-7-fluoro-1-methyl-1H-benzo[d]imidazol-5-yl)methanone] as the compound, how does the IC50 read?
**A.** The IC50 was no more than 0.1 µM.

**Q.** Which IC50 does the source give for `CC[C@@H]1CN(CCCO)c2cccc3cc(-c4nc5cc(C(=O)N6C[C@H]7CC[C@@H]6[C@@H]7N)cc(F)c5n4CC)n1c23` [Example 97, ((1R,4R,7R)-7-amino-2-azabicyclo[2.2.1]heptan-2-yl)(1-ethyl-2-((R)-3-ethyl-1-(3-hydroxypropyl)-2,3-dihydro-1H-pyrrolo[1,2,3-de]quinoxalin-5-yl)-7-fluoro-1H-benzo[d]imidazol-5-yl)methanone] here?
**A.** Its IC50 is greater than 5 µM.

**Q.** With `CCC1CN(CCCO)c2cccc3cc(-c4nc5cc(C(=O)N6C[C@H]7CC[C@@H]6[C@@H]7N)cc(F)c5n4CC4CC4)n1c23` (stereo partly drawn) [Example 77, ((1R,4R,7R)-7-amino-2-azabicyclo[2.2.1]heptan-2-yl)(1-(cyclopropylmethyl)-2-(3-ethyl-1-(3-hydroxypropyl)-2,3-dihydro-1H-pyrrolo[1,2,3-de]quinoxalin-5-yl)-7-fluoro-1H-benzo[d]imidazol-5-yl)methanone] as the compound, how does the IC50 read?
**A.** The IC50 was 0.1 to 0.5 µM.

**Q.** How did the IC50 turn out when `COc1cc(C(=O)N2CCC[C@@H](N)C2)cc2nc(-c3cc4cccc5c4n3CCN5C3CC(NC(C)=O)C3)n(C)c12` (stereo partly drawn) [Example 33, (R)—N-(3-(5-(5-(3-aminopiperidine-1-carbonyl)-7-methoxy-1-methyl-1H-benzo[d]imidazol-2-yl)-2,3-dihydro-1H-pyrrolo[1,2,3-de]quinoxalin-1-yl)cyclobutyl)acetamide] was run?
**A.** Its IC50 is 0.5 to 5 µM.
